Patent US9060966B2, “Use of 2,5-dihydroxybenzene derivatives for the treatment of arthritis and pain” (priority 2006, dated 2015)

Assays:
[1] = test system: intestinal inflammatory disease (IID) induced by DSS; assay: Intestinal inflammatory disease induced by dextran sulfate sodium in mice; format: in vivo; conditions: for disease clinical score (0 to 6 scale): first two DSS cycles
Experimental: (§1) The mice were subject to two 7-day cycles of exposure to dextran sulfate sodium (DSS) (from day 1 to 7 and from day 14 to 21) in the drinking water separated by 7 days in which regular water was provided (from 7 to 14). One group was treated with vehicle (0.9% NaCl), another with Solu-Medrol (10 mg/kg/day i.m.), and the other two groups with potassium 2,5-diacetoxybenzene sulfonate (DABS), one of them with 100 mg/kg/day i.p. and the other with 125 mg/kg/day, orally (p.o.). The body weight was normalized on day 0. Data are expressed as the mean±SD of the percentage of the basal weight (day 0) of 10 mice per group.
as §1, with “(p.o.)” for “(p.o.). The body weight was normalized on day 0.”, “clinical score” for “percentage”, “disease continuously obtained from” for “basal weight (day 0) of”, “per each” for “per”
The induction of the intestinal inflammatory disease described below is a representative model for the evaluation of therapeutic strategies to treat Crohn's disease and ulcerative colitis. 7-8 week old female mice of strain C57BL/6J-664 were used. The intestinal inflammatory disease (IID) was induced by feeding the mice with 3% dextran sulfate sodium (DSS; MW 40,000) dissolved in drinking water in 2 cycles. Each cycle consisted of 7 days with 3% DSS in the drinking water separated by 7 days with regular water. A daily clinical evaluation of the animals was performed in which the body weight, the consistency of the faeces and the presence of blood in the faeces were determined. Thus, the validated score of the clinical activity of the disease was evaluated with a 0 to 6 scale, considering the following parameters: consistency of the faeces, presence or absence of fecal blood and loss of weight.
At the end of the first cycle of exposure to DSS, the mice were divided into the following treatment groups: a first group was administered intraperitoneal (i.p) injections of vehicle (0.9% NaCl). Another group received intramuscular injections of Solu-Medrol, a standard IID treatment, at a dose of 10 mg/kg/day. A third group was administered i.p. injections of potassium 2,5-diacetroxybenzene sulfonate (DABS, 100 mg/kg/day). The last group was treated orally with 125 mg/kg day of DABS.

[2] = test system: human retinal endothelial cells (HREC); assay: Proliferation of human retinal endothelial cells (HREC, crystal violet); format: cell-based; conditions: calcium 2,5-dihydroxybenzenesulfonate, 100 μM, 72 h, for comparison
Experimental: (§2) 2A-5HBS was administered or not administered (control) after seeding the HREC in 24-well plates (7.5×10^3 per well) until they were fixed after 72 hours. The data are expressed as the mean±SEM of the percentage of the absorbance at 595 nm obtained in the control cultures, which is proportional to the number of cells stained with crystal violet. The data were obtained from 6 cultures for each treatment in two separate experiments. The white bar represents the value of the control cells, whereas the gray bars show the value in the presence of 2A-5HBS (500 and 1000 μM). * indicates p<0.05, *** p<0.001 with respect to the control by means of a single-factor analysis of variance (ANOVA) followed by a Student-Newman-Keuls post-analysis.
as §2, with “5A-2HBS” for “2A-5HBS”, “striped” for “gray”, “***” for “*”, “indicates” for “indicates p<0.05, ***”
2,5-DHCME was administered or not administered (control) after seeding the HREC in 24-well plates (7.5×10^3 per well) until they were fixed after 72 hours. The data are expressed as the mean±SEM of the percentage of the absorbance at 595 nm obtained in the control cultures, which is proportional to the number of cells stained with crystal violet. The data were obtained from 6 cultures for each treatment in two separate experiments.
Primary cultures of human retinal endothelial cells (HREC) were used. Cells were obtained from Cell Systems (Virginia, USA) and subcultured with CSC complete medium (Cell Systems). Cells at 2 to 5 passages were seeded in 24-well plates at 7,500 cells/well density and, once attached, the cells were treated o not treated (controls) with 2A-5HBS (500 and 1000 μM) or 5A-2HBS (500 and 1000 μM) and they were allowed to proliferate for 72 hours, with daily medium changes. After that, the proliferation of HREC was evaluated by staining the fixed cells with crystal violet. The number of cells is proportional to the amount of retained dye, which was spectrophotometrically determined by measuring absorbance at 595 nm after removing the dye from the cells. Data are expressed as the percentage of absorbance at 595 nm obtained in control conditions. Data were obtained from two different experiments performed in triplicate.
Primary cultures of human retinal endothelial cells (HREC) were used. Cells were obtained from Cell Systems (Virginia, USA) and subcultured with CSC complete medium (Cell Systems). […] After that, the proliferation of HREC was evaluated by staining the fixed cells with crystal violet. The number of cells is proportional to the amount of retained dye, which was spectrophotometrically determined by measuring absorbance at 595 nm after removing the dye from the cells. Data are expressed as the percentage of absorbance at 595 nm obtained in control conditions. […]

Compound	disease clinical score (0 to 6 scale) ([1]; 100 mg/kg/day i.p.)	disease clinical score (0 to 6 scale) ([1]; 125 mg/kg/day oral)	loss of weight produced by the two cycles of exposure to DSS ([1]; DABS 100 mg/kg/day i.p. or 125 mg/kg/day p.o., routes not distinguished)	efficacy compared with the standard treatment Solu-Medrol ([1]; body weight and clinical score, Solu-Medrol 10 mg/kg/day i.m.)	HREC proliferation [2]
CC(=O)Oc1ccc(OC(C)=O)c(S(=O)(=O)[O-])c1.[K+] [DABS, potassium 2,5-diacetoxybenzene sulfonate]	reduced	reduced	reduced	not lower (in some points it is higher)	
O=S(=O)(O)c1cc(O)ccc1O [DHBS, 2,5-dihydroxybenzenesulfonic acid]					failed to significantly affect
